Legend:
[1] = Stability as a function of buffer strength (1 mg/mL, citrate pH 3.0); format: physicochemical; set-up: Assay: unit not given here; conditions: for Impurities: unit assumed
Method: A 10 mg/mL (XXXVI) solution in 100 mM citrate buffer at pH 3.0 and a 500 mM citrate buffer at pH 3.0 were prepared. Using these two stock solutions, (XXXVI) solutions at 1 mg/mL were prepared in citrate buffers of various concentrations in the range 10-250 mM, as shown in Table 12E.
Each of the above solutions was stored in 5 mL serum vials as ca. 2.5-3 mL aliquots (total of 7 aliquots). Two aliquots were stored at each of 40° C., 60° C. and 25° C. Aliquots stored at 25° C. served as controls to be evaluated if necessary. […]

[2] = test system: morphine-induced respiratory depression; test: Opioid-induced respiratory depression in the rat, plethysmography (minute ventilation); format: in vivo; conditions: morphine sulfate 10 mg/kg IV; infusion 0.10 then 0.30 mg/kg/min, 20 min each; vs vehicle
Method: Rats with pre-cannulated jugular vein (for administering drugs) were acclimated to plethysmography chambers for a minimum of 60 minutes, or until animals were no longer restless. Each animal was dosed with morphine sulfate (10 mg/kg), dissolved in sterile water at a concentration of 10 mg/mL (supplied by Baxter Healthcare Corporation), via injection into the jugular vein catheter over a period of 5-10 seconds.
Compound (XXXVI) was dissolved in 20% hydroxypropyl β-cyclodextran (20% bcd on graph) at a concentration of 0.45 mg/mL at pH 5. After a period of 5 min, compound (XXXVI), labeled as cmpd (A), was administered via infusion into the jugular vein at a dose of 0.10 mg/kg/min for 20 min and then at a dose of […] for 20 min (e.g., 20 μL/min/0.3 kg rat to yield […]).
After 20 minutes of infusion at this dose, the infusion pumps were turned off, and all animals were given a 20 minute recovery period, followed by a post-study analysis of rat health and behavior. […] Results are illustrated in FIG. 1.

Question: What does the source list for `CCCNc1nc(NCCC)nc(N(C)OC)n1` [XXXV, N-(4,6-Bis-n-propylamino-[1,3,5]triazin-2-yl)-N,O-dimethyl-hydroxylamine]?
Answer: Assay ([1]; 10 mM, 40° C. 1 wk): 0.953; pH ([1]; 10 mM, 40° C. 1 wk): 3.26; Assay ([1]; 10 mM, 40° C. 2 wk): 0.947; pH ([1]; 10 mM, 40° C. 2 wk): 3.21; Assay ([1]; 10 mM, 60° C. 1 wk): 0.953; pH ([1]; 10 mM, 60° C. 1 wk): 3.3; Impurities ([1]; 10 mM, 60° C. 1 wk): 0.48%; Assay ([1]; 10 mM, 60° C. 2 wk): 0.956; pH ([1]; 10 mM, 60° C. 2 wk): 3.2; Impurities ([1]; 10 mM, 60° C. 2 wk): 0.89%; Assay ([1]; 10 mM, initial): 0.971; pH ([1]; 10 mM, initial): 3.16; Assay ([1]; 20 mM, 40° C. 1 wk): 0.965; pH ([1]; 20 mM, 40° C. 1 wk): 3.33; Impurities ([1]; 20 mM, 40° C. 1 wk): 0.13%; Assay ([1]; 20 mM, 40° C. 2 wk): 0.966; pH ([1]; 20 mM, 40° C. 2 wk): 3.30; Assay ([1]; 20 mM, 60° C. 1 wk): 0.943; pH ([1]; 20 mM, 60° C. 1 wk): 3.3; Impurities ([1]; 20 mM, 60° C. 1 wk): 0.58%; Assay ([1]; 20 mM, 60° C. 2 wk): 0.947; pH ([1]; 20 mM, 60° C. 2 wk): 3.3; Impurities ([1]; 20 mM, 60° C. 2 wk): 0.88%; Assay ([1]; 20 mM, initial): 1.01; pH ([1]; 20 mM, initial): 3.27; Assay ([1]; 50 mM, 40° C. 1 wk): 0.959; pH ([1]; 50 mM, 40° C. 1 wk): 3.34; Assay ([1]; 50 mM, 40° C. 2 wk): 0.949; pH ([1]; 50 mM, 40° C. 2 wk): 3.29; Assay ([1]; 50 mM, 60° C. 1 wk): 0.936; pH ([1]; 50 mM, 60° C. 1 wk): 3.3; Impurities ([1]; 50 mM, 60° C. 1 wk): 0.59%; Assay ([1]; 50 mM, 60° C. 2 wk): 0.943; pH ([1]; 50 mM, 60° C. 2 wk): 3.3; Impurities ([1]; 50 mM, 60° C. 2 wk): 0.87%; Assay ([1]; 50 mM, initial): 0.976; pH ([1]; 50 mM, initial): 3.28; Assay ([1]; 100 mM, 40° C. 1 wk): 0.964; pH ([1]; 100 mM, 40° C. 1 wk): 3.32; Impurities ([1]; 100 mM, 40° C. 1 wk): 0.26%; Assay ([1]; 100 mM, 40° C. 2 wk): 0.956; pH ([1]; 100 mM, 40° C. 2 wk): 3.29; Impurities ([1]; 100 mM, 40° C. 2 wk): 0.38%; Assay ([1]; 100 mM, 60° C. 1 wk): 0.962; pH ([1]; 100 mM, 60° C. 1 wk): 3.3; Impurities ([1]; 100 mM, 60° C. 1 wk): 0.73%; Assay ([1]; 100 mM, 60° C. 2 wk): 0.946; pH ([1]; 100 mM, 60° C. 2 wk): 3.2; Impurities ([1]; 100 mM, 60° C. 2 wk): 1.2%; Assay ([1]; 100 mM, initial): 0.962; pH ([1]; 100 mM, initial): 3.30; Assay ([1]; 250 mM, 40° C. 1 wk): 0.972; pH ([1]; 250 mM, 40° C. 1 wk): 3.25; Impurities ([1]; 250 mM, 40° C. 1 wk): 0.21%; Assay ([1]; 250 mM, 40° C. 2 wk): 0.945; pH ([1]; 250 mM, 40° C. 2 wk): 3.22; Impurities ([1]; 250 mM, 40° C. 2 wk): 0.56%; Assay ([1]; 250 mM, 60° C. 1 wk): 0.955; pH ([1]; 250 mM, 60° C. 1 wk): 3.2; Impurities ([1]; 250 mM, 60° C. 1 wk): 1.03%; Assay ([1]; 250 mM, 60° C. 2 wk): 0.936; pH ([1]; 250 mM, 60° C. 2 wk): 3.2; Impurities ([1]; 250 mM, 60° C. 2 wk): 1.8%; Assay ([1]; 250 mM, initial): 0.947; pH ([1]; 250 mM, initial): 3.21; effect of buffer strength on impurity levels ([1]; 40° C., buffer concentration relevant to the formulation (ca. 10-50 mM)): no effect of buffer strength at 40 °C

Question: Which “minute ventilation, reversal of opioid-induced respiratory depression” value [2] does the source give for `CCCNc1nc(NCCC)nc(N(C)OC)n1.O=S(=O)(O)O` [XXXVI, N-(4,6-Bis-n-propylamino-[1,3,5]triazin-2-yl)-N,O-dimethyl-hydroxylamine hydrogen sulfate] here?
Answer: significantly reversed opioid-induced respiratory depression

From patent US9162992B2, “Compounds and compositions for treatment of breathing control disorders or diseases” (GALLEON PHARMACEUTICALS, INC., priority 2010, dated 2015)
